In PMC11876601 (Molecular Systems Biology, 2025):

Assays:
SIK3 = system: SIK3; set-up: method as in Klaeger et al. (2017); settings: lysate 4 cell line mix (Colo205, K-562, MV-4-11, and SK-N-BE(2)), Kinobeads y, ref Klaeger et al. (2017); cited from earlier work
PRKAG1 = system: PRKAG1; set-up: method as in Klaeger et al. (2017); settings: lysate 4 cell line mix (Colo205, K-562, MV-4-11, and SK-N-BE(2)), Kinobeads y, ref Klaeger et al. (2017); cited from earlier work
MAP4K3 = system: MAP4K3; set-up: method as in Klaeger et al. (2017); settings: lysate 4 cell line mix (Colo205, K-562, MV-4-11, and SK-N-BE(2)), Kinobeads y, ref Klaeger et al. (2017); cited from earlier work
TBKBP1 = system: TBKBP1; set-up: method as in Klaeger et al. (2017); settings: lysate 4 cell line mix (Colo205, K-562, MV-4-11, and SK-N-BE(2)), Kinobeads y, ref Klaeger et al. (2017); cited from earlier work
INCENP = system: INCENP; set-up: method as in Klaeger et al. (2017); settings: lysate 4 cell line mix (Colo205, K-562, MV-4-11, and SK-N-BE(2)), Kinobeads y, ref Klaeger et al. (2017); cited from earlier work
ACVR1 = system: ACVR1; set-up: method as in Klaeger et al. (2017); settings: lysate 4 cell line mix (Colo205, K-562, MV-4-11, and SK-N-BE(2)), Kinobeads y, ref Klaeger et al. (2017); cited from earlier work
MAP3K6 = system: MAP3K6; set-up: method as in Reinecke et al. (2023); settings: MAP3K6, 5 cell line mix lysate, Kinobeads ε, ref Reinecke et al. (2023), cited from earlier work
ABL1 = settings: ABL1, 5 cell line mix lysate, Kinobeads ε, ref Reinecke et al. (2023), cited from earlier work
TAOK1 = system: TAOK1; set-up: method as in Reinecke et al. (2023); settings: TAOK1, 5 cell line mix lysate, Kinobeads ε, ref Reinecke et al. (2023), cited from earlier work
PDGFRB = target: PDGFRB; set-up: method as in Reinecke et al. (2023); settings: 5 cell line mix lysate, Kinobeads ε, ref Reinecke et al. (2023), cited from earlier work
JAK1 = system: JAK1; set-up: method as in Reinecke et al. (2023); settings: JAK1, 5 cell line mix lysate, Kinobeads ε, ref Reinecke et al. (2023), cited from earlier work
FRK = target: FRK; set-up: method as in Reinecke et al. (2023); settings: 5 cell line mix lysate, Kinobeads ε, ref Reinecke et al. (2023), cited from earlier work
ABL2 = system: ABL2; set-up: method as in Reinecke et al. (2023); settings: ABL2, 5 cell line mix lysate, Kinobeads ε, ref Reinecke et al. (2023), cited from earlier work
TTK = target: TTK; set-up: method as in Reinecke et al. (2023); settings: 5 cell line mix lysate, Kinobeads ε, ref Reinecke et al. (2023), cited from earlier work
TANK = settings: 5 cell line mix lysate, Kinobeads ε, ref Reinecke et al. (2023), cited from earlier work
PDO UME061 = assay: PDO viability assay (CellTiter-Glo, 72 h); assay type: cell-based; settings: Homo sapiens
Procedure: Primary patient-derived PDAC organoid (PDO) experiments were performed in the laboratories of Prof. Maximilian Reichert (University Hospital of the TU Munich, Germany, PDO set 1: B250, B535, B678) and Prof. Jens T. Siveke (University Hospital Essen, Germany; PDO set 2: UME008, UME012, UME051, UME053, UME060, UME061). PDOs were generated from surgical resection, EUS-guided fine needle biopsy (EUS-FNB), or ascites (Appendix Table S2). Surgical specimens were first minced with a sterile scalpel and subsequently washed with Anti-Anti solution and washing medium (PDO set 1), or vice versa (PDO set 2; Appendix Table S3). Biopsy samples were directly washed with an Anti-Anti solution and washing medium. Samples were digested using 1 ml of digestion medium at 37 °C while shaking, and the enzymatic reaction was stopped by adding 15 ml of washing medium (Appendix Table S3). […]
For viability assays in PDOs, confluent organoids were removed from medium, and Matrigel was dissolved by adding 200 μl (PDO set 1) or 2 ml (PDO set 2) of Cell Recovery Solution (Corning), and additionally 500 μl of DPBS (PDO set 1 only). […] After 72 h, cell viability was measured using the CellTiter-Glo Luminescent Cell Viability Assay (Promega) diluted 1:5 in the final volume of the well. […]

## C[C@]12O[C@H](C[C@]1(O)CO)n1c3ccccc3c3c4c(c5c6ccccc6n2c5c31)CNC4=O [Lestaurtinib]
SIK3
  EC50: 1040 nM
PRKAG1
  EC50: 1400 nM
MAP4K3
  EC50: […]
TBKBP1
  EC50: 1010 nM
INCENP
  EC50: 520 nM
ACVR1
  EC50: […]

## COc1cc(N2CCC(N3CCN(C)CC3)CC2)ccc1Nc1ncc(Cl)c(Nc2ccccc2P(C)(C)=O)n1 [Brigatinib]
MAP3K6
  EC50: 844 nM
  pKDapp: 6.16
MAP3K6; read-out: KDapp
  Kd: 697 nM
ABL1
  EC50: 3460 nM
  pKDapp: 5.72
ABL1; read-out: KDapp
  Kd: 1890 nM
TAOK1
  EC50: 847 nM
  pKDapp: 6.25
TAOK1; read-out: KDapp
  Kd: 563 nM
PDGFRB; read-out: KDapp
  Kd: 737 nM
PDGFRB
  EC50: 843 nM
  pKDapp: 6.13
JAK1
  EC50: 373 nM
  pKDapp: 6.86
JAK1; read-out: KDapp
  Kd: 139 nM
FRK; read-out: KDapp
  Kd: 53 nM
FRK
  EC50: 156 nM
  pKDapp: 7.28
ABL2
  EC50: 3240 nM
  pKDapp: 5.97
ABL2; read-out: KDapp
  Kd: 1070 nM
TTK; read-out: KDapp
  Kd: 629 nM
TTK
  EC50: 629 nM
  pKDapp: 6.20
TANK; read-out: KDapp
  Kd: 684 nM
TANK
  EC50: 1070 nM
  pKDapp: 6.17

## Nc1ccn([C@@H]2O[C@H](CO)[C@@H](O)C2(F)F)c(=O)n1 [GEM, Gemcitabine]
PDO UME061; GEM alone
  EC50: 5.8 nM
PDO UME061; experiment GEM (GEM alone), mean of replicates
  EC50: 5.78 nM
